This assay deals with apoptotic sunburn cells in the epidermis of SKH-1 mice. Description: UVB-induced apoptotic sunburn cells in the epidermis of SKH-1 mice after topical application. The format is in vivo, mouse. Conditions: for activity in stimulating UVB-induced apoptosis in mouse skin, compared with caffeine: first study of compounds structurally related to caffeine, given after UVB; for Percent Apoptotic Sunburn Cells: 6.2 μmole in 100 μL acetone right after UVB 30 mJ/cm^2 and at 30 and 120 min, 6 h after UVB; for activity in stimulating UVB-induced apoptosis, compared with caffeine: similar study, acetone:water (90:10) as vehicle (Table 1). As to the method:
Chemicals and Animals. […] Female SKH-1 hairless mice (6 to 7 weeks old) were purchased from the Charles River Breeding Laboratories, and the animals were kept in an animal facility for at least one week before use at 7 to 8 weeks of age. Mice were given water and PURINA® Laboratory CHOW® 5001 diet from Ralston-Purina (St. […] For the analysis conducted herein, 5 mice were used per group. Treatment of Mice with UVB. […] The radiation was further calibrated with a model IL-1700 research radiometer/photometer (International Light, Newburyport, Mass.). Measurement of apoptotic sunburn cells. Identification of apoptoic sunburn cells was based morphologically on cell shrinkage and nuclear condensation due to fragmentation of the cells. […] Six hours after UVB, the animals were sacrificed and apoptotic sunburn cells in the epidermis were determined morphologically. […] Six hours after UVB, the animals were sacrificed and apoptotic sunburn cells in the epidermis were determined morphologically. […] Acetone Formulation. […] Six hours after UVB, the animals were sacrificed and apoptotic sunburn cells in the epidermis were determined morphologically. […] […] Formulations. […] Six hours after UVB the animals were sacrificed and apoptotic sunburn cells in the epidermis were determined morphologically. […] Six hours after UVB the animals were sacrificed and apoptotic sunburn cells in the epidermis were determined morphologically.

The mark [1] stands for this setting: Table 1, vs acetone group, 6.2 μmole x3 after UVB 30 mJ/cm^2, 6 h.

Marks after values point to notes of the source that are not given here.

For `Cn1c(=O)c2ncn(C)c2n(C)c1=O` [1,3,9-trimethylxanthine], the “activity in stimulating UVB-induced apoptosis in mouse skin, compared with caffeine” value (shortened to “activity … in mouse skin, compared with caffeine”) was “somewhat less active than caffeine”.
The same measure, in the same setting: the same measure for `Cn1c(=O)[nH]c2ncn(C)c2c1=O` [1,7-dimethylxanthine]: “as active as caffeine”.
Take `Cn1cnc2c1c(=O)[nH]c(=O)n2C` [Theobromine, 3,7-dimethylxanthine]: the “activity … in mouse skin, compared with caffeine” value is recorded as “little or no activity” and the “activity in stimulating UVB-induced apoptosis, compared with caffeine” value was “about half as active as caffeine”. Moreover, under “mean ± S.E.”, the “Percent Apoptotic Sunburn Cells” value is listed as 0.358 ± 0.064^ %. In addition, the “% Induction” value under setting [1] is 75%.
For `Cn1c(=O)c2[nH]cnc2n(C)c1=O` [Theophylline, 1,3-dimethylxanthine], in that order: “as active as caffeine”, “somewhat more active than caffeine”, 0.703 ± 0.171^b % and 245%.
Take `O=c1[nH]c(=O)c2[nH]cnc2[nH]1` [Xanthine, xanthine]: the “activity … in mouse skin, compared with caffeine” value was “little or no activity”. Further, the “Percent Apoptotic Sunburn Cells” value (mean ± S.E.) is on record as 0.221 ± 0.046^ %. Also, the “% Induction” value under setting [1] came out at 8%.
As for `Cn1c(=O)c2c(nc(Br)n2C)n(C)c1=O` [8-bromocaffeine], the “activity … in mouse skin, compared with caffeine” value was “little or no activity”.
Regarding `O=C([O-])c1ccccc1.[Na+]` [Sodium benzoate, sodium benzoate], the “Percent Sunburn Cells, UVB” value (6.2 μmole (each) in 100 μL acetone:water (9:1) immediately after UVB 30 mJ/cm^2 and at 30 and 120 min, 6 h, mean ± S.E.) is recorded as 0.27 ± 0.08%. For the same molecule, the “enhancement of UVB-induced apoptosis in the epidermis, applied in DERMABASE” value (DERMABASE vehicle, equimolar amounts (Table 4)) is “inactive”. For the same molecule, the “% Induction” value (Table 2, vs acetone, 6.2 μmole in acetone:water (9:1)) was 29%.
Take `Cn1c(=O)c2c(ncn2C)n(C)c1=O` [Caffeine Citrated, citrated caffeine]: the “Percent Apoptotic Sunburn Cells” value (mean ± S.E.) was 0.757 ± 0.199^b %. Moreover, under setting [1], the “% Induction” value came to 271%.
For the molecule `CC(=O)CCCCn1c(=O)c2c(ncn2C)n(C)c1=O` [Pentoxifylline, pentoxifylline], the “activity … in mouse skin, compared with caffeine” value was “little or no activity” and the “activity in stimulating UVB-induced apoptosis, compared with caffeine” value is “about half as active as caffeine”. Moreover, the “Percent Apoptotic Sunburn Cells” value (mean ± S.E.) is reported as 0.318 ± 0.068^ %. In addition, the “% Induction” value under setting [1] worked out at 56%.
For the molecule `Cn1c(=O)c2c(nc(Cl)n2C)n(C)c1=O` [8-chlorocaffeine], the “activity … in mouse skin, compared with caffeine” value is given as “little or no activity”.
